Laboratory results: patent US11752180B2, “Intestinal protectant” (National University Corporation Asahikawa Medical University, priority 2010, dated 2023)
Where no end group is shown, it is not given here.

Tested on: integrin (integrin β)
Assay: Interaction between polyphosphoric acid and integrin: mannitol ex vivo loop assay with peptide antagonist of integrin
Design: species or system mouse
Method: Using a peptide antagonist of integrin, the interaction between polyphosphoric acid and integrin was analyzed. For the peptide antagonist of integrin, the peptide having the amino acid sequence of Gly-Arg-Gly-Asp-Thr-Pro (GRGDTP) (hereinafter also referred to as “GRGDTP”) was used. GRGDTP has the sequence of Arg-Gly-Asp (RGD), which is recognized by integrin β.
The intestinal tract permeability experiment on mannitol by ex vivo loop assay was carried out in the same manner as in Example 9 and Example 11 except that GRGDTP was added in a concentration of 100 μg/ml, in addition to the enzymatically synthesized polyphosphoric acid or the chemically synthesized polyphosphoric acid, to the PBS solution to be filled in the intestinal tract, and the intestinal tract barrier function was evaluated.

## GRGDTP [peptide antagonist of integrin]
GRGDTP 100 μg/ml in combination with chemically synthesized polyphosphoric acid
  effect of GRGDTP on the intestinal tract barrier effect of chemically synthesized polyphosphoric acid (mannitol leakage): had the same result
GRGDTP 100 μg/ml in combination with enzymatically synthesized polyphosphoric acid
  effect of GRGDTP on the intestinal tract barrier effect of enzymatically synthesized polyphosphoric acid (mannitol leakage): remarkably inhibited
